Reference: patent US8722897B2, “Metal complexes of thiourea and derivatives as metal delivering anti-cancer and anti-inflammatory agents” (priority 2010, dated 2014)
Like-named read-outs stand apart in the source and are kept apart here.

How the values were obtained:
[1] = tested on: HeLa, human cervical epithelioid carcinoma; assay: Cytotoxicity assay (MTT), HeLa; settings: read-out: Cytotoxicities (IC50), HeLa, 72 h, MTT
[2] = Cytotoxicity assay (MTT), SUNE1; settings: human, SUNE1 cells
[3] = tested on: glutathione peroxidase (GPx); assay: Cellular glutathione peroxidase activity of treated HeLa cells; assay type: cell-based, human; settings: one-hour treatment
Description: (§1) Cells were seeded at 2×10^5/well in 6-well plates and incubated for 24 hours. The metal thiourea compounds (10^−9 to 10^−4 M) were serially diluted and added to the cells (final DMSO concentrations≦1%). After an one-hour incubation, cells were washed thrice with phosphate buffered saline and 100 μL ice-cold lysis buffer (50 mM phosphate buffer, pH 7.4, 1 mM EDTA, 0.1% Triton-X 100) were added to the cell layer. Cell lysis was carried on ice for 5 minutes and the cell lysates were collected and stored at −80° C. or assayed immediately.
Cell lysates (10 μg proteins) were added to a mixture containing 100 mM phosphate, pH 7.4, 2 mM GSH, 1 U glutathione reductase, and 0.2 mM NADPH. Reaction was initiated by adding tert-butyl hydroperoxide (300 μM) and the NADPH oxidation was measured as decreases in O.D.340 nm in 10 min. GPx activities (ΔO.D.340 nm/min) were determined by subtracting the spontaneous NADPH oxidation in the absence of tert-butyl hydroperoxide.

[4] = Cytotoxicity assay (MTT), HeLa; settings: human, HeLa cells
[5] = target: T1, Glutathione reductase (GR) (Homo sapiens, UniProt P00390); assay: Cellular glutathione reductase activity of treated HeLa cells; assay type: cell-based; settings: one-hour treatment, up to 100 μM
T1 construct: endogenous in cells; host or cells: HeLa
T1 sequence (P00390 44-522): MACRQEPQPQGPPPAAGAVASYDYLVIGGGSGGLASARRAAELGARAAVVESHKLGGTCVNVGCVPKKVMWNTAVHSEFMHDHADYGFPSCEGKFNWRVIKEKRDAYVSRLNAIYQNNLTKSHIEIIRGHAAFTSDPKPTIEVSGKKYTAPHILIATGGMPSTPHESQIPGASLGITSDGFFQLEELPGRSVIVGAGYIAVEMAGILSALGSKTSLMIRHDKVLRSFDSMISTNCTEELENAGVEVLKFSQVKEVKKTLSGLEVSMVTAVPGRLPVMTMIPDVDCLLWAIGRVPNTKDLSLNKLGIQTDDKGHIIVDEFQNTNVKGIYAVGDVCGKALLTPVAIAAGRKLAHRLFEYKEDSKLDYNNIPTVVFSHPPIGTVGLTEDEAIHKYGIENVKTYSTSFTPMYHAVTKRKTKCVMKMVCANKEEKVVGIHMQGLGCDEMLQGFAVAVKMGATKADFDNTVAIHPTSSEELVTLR
Description: as §1
Cell lysates (10 μg proteins) were added to a mixture containing 100 mM phosphate, pH 7.4, 1 mM EDTA, 1 mM GSSG and 0.2 mM NADPH. Reaction was initiated by adding DTNB (3 mM final) and the increases in O.D.412 nm were measured for 10 min. GR activities were determined by subtracting the increases in O.D.412 nm in the absence of GSSG.

[6] = Cytotoxicity assay (MTT), HepG2; settings: human, HepG2 cells
[7] = tested on: panel of cancer cell lines; settings: Homo sapiens, read-out: half maximal inhibitory concentrations (IC50), panel of cancer cell lines
[8] = Cytotoxicity assay (MTT), NCI-H460; settings: human, NCI-H460 cells
[9] = target: T2, thioredoxin reductase (TrxR) (Homo sapiens, UniProt Q16881); assay: Cellular thioredoxin reductase activity of treated HeLa cells; assay type: cell-based; settings: one-hour treatment
T2 sequence (Q16881 1-649): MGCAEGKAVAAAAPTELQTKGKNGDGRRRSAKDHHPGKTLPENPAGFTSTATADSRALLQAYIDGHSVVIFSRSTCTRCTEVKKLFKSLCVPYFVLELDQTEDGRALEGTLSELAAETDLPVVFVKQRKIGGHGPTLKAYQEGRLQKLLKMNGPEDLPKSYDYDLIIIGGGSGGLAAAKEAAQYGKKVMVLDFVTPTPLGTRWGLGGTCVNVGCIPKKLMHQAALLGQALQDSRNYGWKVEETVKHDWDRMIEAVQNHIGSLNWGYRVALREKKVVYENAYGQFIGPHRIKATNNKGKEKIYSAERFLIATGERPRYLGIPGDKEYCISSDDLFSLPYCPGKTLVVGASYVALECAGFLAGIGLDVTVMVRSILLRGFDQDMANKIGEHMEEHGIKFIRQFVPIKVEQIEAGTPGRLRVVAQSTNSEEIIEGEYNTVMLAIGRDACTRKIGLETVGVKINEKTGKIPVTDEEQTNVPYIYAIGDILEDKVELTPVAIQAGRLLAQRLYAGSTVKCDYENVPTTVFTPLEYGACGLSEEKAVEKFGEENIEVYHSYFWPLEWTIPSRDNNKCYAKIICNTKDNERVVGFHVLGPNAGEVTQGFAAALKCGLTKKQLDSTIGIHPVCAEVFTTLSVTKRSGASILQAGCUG
Description: as §1, with “immediately. Cell lysates (10 μg proteins) were added to a mixture (100 μL) containing 100 mM phosphate, pH 7.4, 1 mM EDTA and 0.2 mM NADPH.” for “immediately.”

[10] = tested on: HeLa, human cervical epithelioid carcinoma
[11] = tested on: HepG2, human hepatocellular carcinoma
[12] = tested on: NCI-H460 = human lung carcinoma
[13] = tested on: SUNE1, human nasopharyngeal carcinoma
[14] = tested on: NCI-H460 non-small cell lung cancer cells; assay type: in vivo, mice
Description: The in vivo experiment was conducted in Pearl Materia Medica Development (Shenzhen) Limited and performed with approval from the Committee on the Use of Live Animals for Teaching and Research. SPF grade four-week-old female BALB/c AnN-nu mice (nude mice, 16-18 g) were purchased. Tumor cells (5×10^6) resuspended in RPMI medium were implanted by subcutaneous injection on the right flank of the mice. When tumors were approximately 50 mm^3 in size, animals were randomly separated into 3 groups to receive treatment of twice-a-week intraperitoneal injection of 10% PET vehicle control (where 10% PET=6% polyethylene glycol 400, 3% ethanol, 1% Tween 80 and 90% PBS), complex 1 (100 mg/kg) or cyclophosphamide (30 mg/kg) for 8 times. After 28 days, the mice were sacrificed and the tumors were isolated and weighted.

O=[N+]([O-])[O-].[Ag+] [AgNO3, reference compound]
IC50 [1]: 32.1 ± 1.2 µM

COc1ccc(N2CCN(c3ccc(OC)cc3)C2=S)cc1 [TU, 1,3-bis(4-methoxyphenyl)imidazolidine-2-thione, reference compound]
IC50 at 72 h [2]: > 100 µM
effect on cellular GPx activity, added up to 100 μM [3]: not affected
IC50 at 72 h [4]: > 100 µM
effect on cellular GR activity, added up to 100 μM [5]: not affected
IC50 at 72 h [6]: > 100 µM
IC50 [7]: > 100 µM
IC50 at 72 h [8]: > 100 µM
effect on cellular TrxR activity, added up to 100 μM [9]: not affected

F[P-](F)(F)(F)(F)F.NC(N)=S.NC(N)=S.[Cu+] [complex 3, [Cu(TU)2]PF6]
IC50 [10]: 12.7 ± 0.9 µM
effect on cellular GPx activity, added up to 100 μM [3]: not affected
IC50 [11]: 13 ± 0.9 µM
IC50 [12]: 11.2 ± 0.9 µM
IC50 [13]: 8.5 ± 1 µM
effect on cellular GR activity, added up to 100 μM [5]: not affected
effect on cellular TrxR activity, added up to 100 μM [9]: not affected

O=P1(N(CCCl)CCCl)NCCCO1 (stereo not drawn) [cyclophosphamide]
Tumor volume, Day 13 ([14]; Day 13, 30 mg/kg i.p. twice a week): 325.041 ± 170.053 mm^3
Tumor volume, Day 17 ([14]; Day 17, 30 mg/kg i.p. twice a week): 639.465 ± 422.362 mm^3
Tumor volume, Day 21 ([14]; Day 21, 30 mg/kg i.p. twice a week): 1032.258 ± 594.026 mm^3
Tumor volume, Day 25 ([14]; Day 25, 30 mg/kg i.p. twice a week): 1474.100 ± 900.357 mm^3
Tumor volume, Day 29 ([14]; Day 29, 30 mg/kg i.p. twice a week): 1438.735 ± 845.815 mm^3
